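How tested: cells in 96-well plates exposed to compound for 48 hours at five concentrations. GI50 marks 50% less growth.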 Activity calls are given as the source filed them. No stated cut-off is given here; in the data, active = GI50 up to about 1.1 µM and inactive = higher. Where a SMILES comes first, the peptide text is derived from it. [ ]: non-standard residue; d: D form. The star is where a group is joined. ξ: configuration not given here. ξF = NC(Cc1ccccc1)C(=O)O; Cbz = O=C(OCc1ccccc1)*; Aib = CC(C)(N)C(=O)O
Key:
Experiment in all cases: growth of human tumour cells (NCI), 48 h
[1] = test system: A549
[2] = test system: ACHN
[3] = test system: HOP-62
[4] = test system: K562
[5] = test system: MCF7
[6] = test system: MDA-MB-231
[7] = test system: NCI-H23
[8] = test system: NCI/ADR-RES
[9] = test system: OVCAR-8
[10] = test system: RPMI-8226
[11] = test system: SF-268
[12] = test system: SF-539
[13] = test system: SK-MEL-28
[14] = test system: SK-OV-3
[15] = test system: SN12C
[16] = test system: SNB-75
[17] = test system: SR
[18] = test system: SW-620
[19] = test system: UACC-62
[20] = test system: NCI-H522

| SMILES | GI50 [1] | GI50 [2] | GI50 [3] | GI50 [4] | GI50 [5] | GI50 [6] | GI50 [7] | GI50 [8] | GI50 [9] | GI50 [10] | GI50 [11] | GI50 [12] | GI50 [13] | GI50 [14] | GI50 [15] | GI50 [16] | GI50 [17] | GI50 [18] | GI50 [19] | GI50 [20] |
| --- | --- | --- | --- | --- | --- | --- | --- | --- | --- | --- | --- | --- | --- | --- | --- | --- | --- | --- | --- | --- |
| C=C[C@H]1CN2CCc3c([nH]c4c([C@@H]5CCCN5C)c(O)ccc34)[C@@H]2C[C@@H]1C[C@H]1c2[nH]c3ccccc3c2CCN1C | 0.764 µM (active) | 1.92 µM (inactive) | 1.31 µM (inactive) | 0.255 µM (active) | 1.75 µM (inactive) | 1.63 µM (inactive) | 1.85 µM (inactive) | 1.61 µM (inactive) | 1.69 µM (inactive) | 0.35 µM (active) | 1.48 µM (inactive) | 1.57 µM (inactive) | 1.55 µM (inactive) | 1.62 µM (inactive) | 1.54 µM (inactive) | 0.813 µM (active) | 0.253 µM (active) | 1.23 µM (inactive) | 1.68 µM (inactive) |  |
| O=C(O)c1nn(-c2ccccc2)nc1-c1nn(-c2ccccc2)nc1C(=O)O | > 100 µM (inactive) | > 100 µM (inactive) | > 100 µM (inactive) | > 100 µM (inactive) | > 100 µM (inactive) | > 100 µM (inactive) | > 100 µM (inactive) | > 100 µM (inactive) | > 100 µM (inactive) | > 100 µM (inactive) | > 100 µM (inactive) | > 100 µM (inactive) | > 100 µM (inactive) | > 100 µM (inactive) | > 100 µM (inactive) |  | > 100 µM (inactive) | > 100 µM (inactive) | > 100 µM (inactive) |  |
| CN(C)C(=S)SCc1ccccc1 | > 100 µM (inactive) |  | > 100 µM (inactive) |  | > 100 µM (inactive) | 99.1 µM (inactive) | > 100 µM (inactive) | > 100 µM (inactive) | > 100 µM (inactive) |  | > 100 µM (inactive) | > 100 µM (inactive) | > 100 µM (inactive) | > 100 µM (inactive) | > 100 µM (inactive) | 2.41 µM (inactive) |  | > 100 µM (inactive) | > 100 µM (inactive) | 19.8 µM (inactive) |
| CC1(C)N=C(C2CCCN2C(=O)OCc2ccccc2)OC1=O (centres undefined) | > 100 µM (inactive) | > 100 µM (inactive) | > 100 µM (inactive) | > 100 µM (inactive) | > 100 µM (inactive) | > 100 µM (inactive) | > 100 µM (inactive) | > 100 µM (inactive) | > 100 µM (inactive) | > 100 µM (inactive) | > 100 µM (inactive) | > 100 µM (inactive) | > 100 µM (inactive) | > 100 µM (inactive) | > 100 µM (inactive) | > 100 µM (inactive) |  | > 100 µM (inactive) | > 100 µM (inactive) | > 100 µM (inactive) |
| Cn1c(=O)c2c(nc(N/N=C3/SCC(=O)N3Cc3ccccc3)n2C)n(C)c1=O | 89.5 µM (inactive) | > 100 µM (inactive) | > 100 µM (inactive) | < 0.01 µM (active) | 81.7 µM (inactive) | 60.7 µM (inactive) | > 100 µM (inactive) | > 100 µM (inactive) | > 100 µM (inactive) | 17.5 µM (inactive) | 60.7 µM (inactive) | 25.6 µM (inactive) | > 100 µM (inactive) | 43.5 µM (inactive) | > 100 µM (inactive) |  |  |  | 64.4 µM (inactive) | 71.4 µM (inactive) |
| CCSc1ncnc2c(C3OC(CO)C(O)C3O)nsc12 (centres undefined) | > 100 µM (inactive) |  | > 100 µM (inactive) | > 100 µM (inactive) | > 100 µM (inactive) | > 100 µM (inactive) |  | > 100 µM (inactive) | > 100 µM (inactive) |  | > 100 µM (inactive) | > 100 µM (inactive) | > 100 µM (inactive) | > 100 µM (inactive) | > 100 µM (inactive) | > 100 µM (inactive) | > 100 µM (inactive) | > 100 µM (inactive) |  |  |
| Fc1ccccc1C1SCc2nc3cc4ccccc4cc3n21 (centres undefined) | 64.9 µM (inactive) | 28.8 µM (inactive) | > 100 µM (inactive) | > 100 µM (inactive) | 22.7 µM (inactive) | 13.2 µM (inactive) | > 100 µM (inactive) | 49.1 µM (inactive) | 36.6 µM (inactive) | > 100 µM (inactive) | 45.3 µM (inactive) |  | 54.3 µM (inactive) | 71.6 µM (inactive) | 36.1 µM (inactive) | 31.7 µM (inactive) |  | 85.7 µM (inactive) | 57.9 µM (inactive) | 18.7 µM (inactive) |
| CC(=O)O[C@H]1[C@H](OC(=O)CC(C)(O)CC(=O)O)C[C@]2(C)C3=C(CCC2C1(C)C)[C@]1(C)CC[C@H]([C@H]2CC[C@H](C(C)(C)O)OC2O)[C@@]1(C)[C@@H](O)C3 (some centres undefined) | 32.4 µM (inactive) | 15.8 µM (inactive) | 16.3 µM (inactive) | 26.2 µM (inactive) | 24 µM (inactive) | 14.9 µM (inactive) | 16.6 µM (inactive) | > 100 µM (inactive) | 18.7 µM (inactive) | 20.9 µM (inactive) |  |  | 16.9 µM (inactive) | 16.7 µM (inactive) | 17.5 µM (inactive) |  | 25.6 µM (inactive) | 14.1 µM (inactive) | 19.4 µM (inactive) |  |
| CCCCN=C(OC1C=CCCC1)SC (centres undefined) | > 100 µM (inactive) | > 100 µM (inactive) | > 100 µM (inactive) | > 100 µM (inactive) | > 100 µM (inactive) | > 100 µM (inactive) | > 100 µM (inactive) | > 100 µM (inactive) | > 100 µM (inactive) | > 100 µM (inactive) | > 100 µM (inactive) |  | > 100 µM (inactive) | > 100 µM (inactive) | > 100 µM (inactive) | 51.9 µM (inactive) | > 100 µM (inactive) | > 100 µM (inactive) | > 100 µM (inactive) |  |
| COc1ccccc1-c1cc(O)c2c(C)cc(C)nc2n1 | 59.7 µM (inactive) | 46.3 µM (inactive) | > 100 µM (inactive) | 67.9 µM (inactive) | 46.8 µM (inactive) | 84.3 µM (inactive) | 56.1 µM (inactive) | 54.7 µM (inactive) | 90.2 µM (inactive) | 38.4 µM (inactive) | 84.3 µM (inactive) | > 100 µM (inactive) | > 100 µM (inactive) | > 100 µM (inactive) | 70.1 µM (inactive) |  |  | 61.7 µM (inactive) | 71.9 µM (inactive) | 43.7 µM (inactive) |
| COC(=O)C(C)(C)NC(=O)C(Cc1ccccc1)NC(=O)C(C)(C)NC(=O)OCc1ccccc1 (centres undefined) (Cbz-[Aib]-[ξF]-[Aib]-OMe) | > 100 µM (inactive) | > 100 µM (inactive) | > 100 µM (inactive) | > 100 µM (inactive) | > 100 µM (inactive) | > 100 µM (inactive) |  | > 100 µM (inactive) | > 100 µM (inactive) | > 100 µM (inactive) | > 100 µM (inactive) |  | > 100 µM (inactive) | > 100 µM (inactive) |  |  |  | > 100 µM (inactive) | > 100 µM (inactive) | > 100 µM (inactive) |
